Here are results for 14 compounds from paper PMC8301170, “New Benzimidazothiazolone Derivatives as Tyrosinase Inhibitors with Potential Anti-Melanogenesis and Reactive Oxygen Species Scavenging Activities” (Antioxidants, 2021).

The structures appear in SMILES notation. Entries after “also recorded” stand apart in the source; their conditions may differ.

The melting point is the temperature, or range, at which the solid turns liquid. As a reminder, the IC50 is the concentration that inhibits the measured activity by half. High values mean weaker potency, low ones greater potency.

Data set [1] concerns B16F10 cells. Kind of data set: Cell viability, EZ-Cytox assay. Format: cell-based, mouse. The settings on record: 5–200 µM, 48 h, vs vehicle control. As to the method:
The mouse melanoma cell line B16F10 was acquired from American Type Culture Collection (ATCC®; CCL-6475™) (Manassas, VA, USA) and cultured in DMEM, supplemented with 10% fetal bovine serum (FBS) and 1% penicillin–streptomycin, at 37 °C in a humidified 5% CO2 atmosphere. Cell viability assays were performed with minor modifications, as previously reported. Cell viability was evaluated using the EZ-Cytox assay kit (DaeilLab, Seoul, Korea). The compounds were dissolved in DMSO for the in vitro experiments.
The EZ-Cytox assay was used to estimate cell viability. […] Consequently, 20 µM sample concentrations of compounds 1–3 and trolox were used for further experiments.
Figure 4 Effects of compounds 1–3 and trolox on the viability of B16F10 cells. Cells were incubated with different concentrations (5–200 µM) of compound 1 (A), 2 (B), 3 (C), and trolox (D) for 48 h, and cell viability was determined using EZ-Cytox assay. *** p < 0.001 vs. DMSO-treated.

Data set [2] is described as follows: ROS scavenging activity, DCFDA assay, cell-free in vitro. The following applies: SIN-1-induced oxidative stress. The protocol: (§1) ROS scavenging activity was determined according to the method reported by Ali et al. and Lebel and Bondy. Briefly, 2′,7′-Dichlorodihydrofluorescein-diacetate (DCFH-DA) (2.5 mM, Molecular Probes, Eugene, OR, USA) mixed with esterase (1.5 units/mL), was incubated at 37 °C for 30 min and placed on ice in the dark until immediately prior to the study. Phosphate buffer (50 mM) at pH 7.4 was used. To determine intracellular ROS scavenging activity, B16F10 cells (1 × 10^4/well) were seeded in black 96-well plates. After 24 h, the cells were incubated with DCFH-DA (20 µM) and SIN-1 ([…]) for 30 min to induce ROS generation. The fluorescence intensity of oxidized DCFH was measured using a fluorescent microplate reader at excitation and emission wavelengths of 485 and 530 nm, respectively (Tecan, Männedorf, Switzerland). Trolox was used as the positive control.
ROS may regulate melanogenesis in melanoma cells. The principle of the intracellular ROS assay is that DCF-DA spreads through the cell membrane and is enzymatically hydrolyzed to […] by esterase; DCFH then responses with ROS to yield DCF [56]. The ROS scavenging activity of compounds 1–3 was investigated in vitro by using fluorescence probes, (DCF-DA) for ROS. SIN-1 is used as an NO donor [57, 58]. […] . […] The importance of catechol moiety (3,4-dihydroxy group) for ROS scavenging activity was reported in previous studies in the literature.
Figure 5 Reactive oxygen species (ROS) scavenging activity of compound 2. The inhibitory effect of compound 2 on ROS production was evaluated. A DCFDA assay was performed to determine ROS levels. The ROS scavenger trolox was used as the positive control. The scavenging activity of compound 2 on oxidative stress induced by 10 µM SIN-1 was estimated in cell-free in vitro (A). B16F10 cells were pre-treated with compound 2 and trolox for 3 h and further treated with 10 µM SIN-1 (B).

The target in another data set is mushroom tyrosinase (Agaricus bisporus, UniProt C7FF04). Kind of data set: Enzyme kinetic analysis of mushroom tyrosinase (Lineweaver–Burk and Dixon plots). The following applies: L-tyrosine substrate 0.5–4 mM. The class given is biochemical. The protocol:
Lineweaver–Burk and Dixon plots were used to calculate the inhibition mode and inhibition constant (Ki) against mushroom tyrosinase. Kinetic parameters for various concentrations of the L-tyrosine substrate (0.5–4 mM) and inhibitors (0.4, 2, and 10 µM for compound 1; and 2, 4, and 8 µM for compound 2; and 2.5, 5, and 10 µM for compound 3, respectively) were achieved.
To elucidate the type of enzymatic inhibition, a kinetic analysis was accomplished at several concentrations of the L-tyrosine substrate and inhibitors (1–3), according to the Lineweaver–Burk and Dixon plot methods (Table 3 and Figure 2). […] Furthermore, the Dixon plot is a graphical method [plot of 1/enzyme velocity (1/V) against inhibitor concentration (I)] used to determine the type of enzymatic inhibition and the dissociation or inhibition constant (Kic) for the enzyme-inhibitor complex.
Figure 2 Enzymatic kinetics study of compounds 1–3 against tyrosinase. Lineweaver–Burk plots for the inhibition of mushroom tyrosinase of compounds 1 (A), 2 (B), and 3 (C). Dixon plots for tyrosinase inhibition of compounds 1 (D), 2 (E), and 3 (F) using L-tyrosine as the substrate.

The subject of data set [3] is B16F10 cells. The data set can be described thus: Intracellular ROS levels in SIN-1-treated B16F10 cells. The class given is cell-based, mouse. The settings on record: pre-treated 3 h, then SIN-1. As to the method:
as §1
ROS may regulate melanogenesis in melanoma cells. The principle of the intracellular ROS assay is that DCF-DA spreads through the cell membrane and is enzymatically hydrolyzed to […] by esterase; DCFH then responses with ROS to yield DCF [56]. The ROS scavenging activity of compounds 1–3 was investigated in vitro by using fluorescence probes, (DCF-DA) for ROS. SIN-1 is used as an NO donor [57, 58]. […]
Figure 5 Reactive oxygen species (ROS) scavenging activity of compound 2. The inhibitory effect of compound 2 on ROS production was evaluated. […]

For data set [4], the system named is tyrosinase, p-CREB, p-PKA, MITF, p-JNK, p-ERK, p-p38. Kind of data set: Western blot analysis of melanogenic signaling proteins in α-MSH- and IBMX-induced B16F10 cells. The class given is cell-based, mouse. As to the method: Lysed samples were boiled for 10 min with gel-loading buffer (0.125 M Tris-HCl, pH 6.8, 4% SDS, 10% 2-mercaptoethanol and 0.2% bromophenol blue) at a volume ratio of 1:1. Total protein equivalents were separated with SDS-PAGE using 9–10% acrylamide gels and then transferred onto polyvinylidene fluoride membranes (Millipore, Burlington, MA, USA) at 25 V for 10 min in a semi-dry transfer system (Bio-Rad Laboratories, Hercules, CA, USA). The membranes were immediately placed in blocking buffer (5% non-fat milk) in 10 mM Tris (pH 7.5), 100 mM NaCl, and 0.1% Tween-20. The blots were blocked at room temperature for 1 h. The membranes were incubated with appropriate specific primary antibodies at 4 °C overnight and then treated with horseradish peroxidase-conjugated anti-mouse, anti-rabbit or anti-goat antibodies (1:5000) at 25 °C for 1 h (Santa Cruz Biotechnology, Dallas, TX, USA). Protein bands were visualized using the SuperSignal® West Pico Chemiluminescent Substrate kit (Advansta, San Jose, CA, USA) and Davinch-Chemi^TM (Davinch-K, Seoul, Korea).
It is important to determine whether the inhibition of melanin synthesis by compound 2 is related to melanogenesis signaling and gene expression. […] MITF, a leucine zipper transcription factor, activates the expression of multiple genes encoding enzymes involved in the conversion of tyrosine into melanin, resulting in increased levels of these melanin-producing proteins. […] The skin is site of oxidative stress due to exposure to daylight and environmental oxidizing pollutants. It is known that ROS stimulates α-MSH- and IBMX-induced production in melanoma cells leading to melanogenesis by upregulating MITF, a transcription factor that induces tyrosinase gene expression. […] However, the levels of phosphorylated p38 were not affected by treatment with compound 2. In our study, both p-JNK and p-ERK were decreased by compound 2.
Figure 7 Effects of compound 2 on melanogenic proteins and mRNA levels in α-MSH- and IBMX-induced B16F10 cells. […] The expression levels of tyrosinase, p-CREB, p-PKA, p-JNK, p-ERK, p-p38, and β-actin were determined with Western blotting in the cytosolic fraction. β-actin was used as the loading control (A,B,D,E). The expression levels of MITF and TFIIB were determined with Western blotting in the nuclear fraction. TFIIB was used as the loading control (C). Relative mRNA levels of the melanogenic genes MITF, Tyrosinase, Trp1, and Trp2 in the cells were quantified using real-time qPCR and normalized to the GAPDH mRNA level (F).
A general note: In western blotting, separated proteins are transferred to a membrane and probed.

The test system of data set [5] is MITF, tyrosinase, TRP1, TRP2 mRNA. Kind of data set: Real-time qPCR of melanogenic genes in α-MSH- and IBMX-induced B16F10 cells. The class given is cell-based, mouse. The settings on record: normalized to GAPDH. As to the method:
RNA from cell samples was purified using the RiboEx Total RNA solution (GeneAll Biotechnology, Seoul, Korea) according to the manufacturer’s instructions. Total RNA (2 µg) treated with ribonuclease (RNase) free deoxyribonuclease (DNase) was reverse-transcribed using Hyperscript^TM One-Step RT-PCR (GeneAll Biotechnology, Seoul, Korea). Real-time qPCR was performed using the SensiFAST^TM SYBR® No-ROX dye (Bioline, London, UK.) and a CFX Connect System (Bio-Rad Laboratories, Hercules, CA, USA). Relative gene expression was calculated with the standard curve method using GAPDH as the internal control. Ct values were obtained with qPCR. Three independent tests were performed.
The effects of compound 2 on the expression of mRNA melanogenic factors were evaluated in α-MSH- and IBMX-induced B16F10 cells. […] The mRNA levels of tyrosinase, TRP1, TRP2, and MITF were quantified with real-time qPCR (Figure 7F).
Figure 7 Effects of compound 2 on melanogenic proteins and mRNA levels in α-MSH- and IBMX-induced B16F10 cells. […] The expression levels of tyrosinase, p-CREB, p-PKA, p-JNK, p-ERK, p-p38, and β-actin were determined with Western blotting in the cytosolic fraction. β-actin was used as the loading control (A,B,D,E). The expression levels of MITF and TFIIB were determined with Western blotting in the nuclear fraction. […]
In general terms: Real-time PCR tracks product formation cycle by cycle.

For data set [6], the system named is B16F10 cells. The data set can be described thus: Melanin contents in α-MSH and IBMX-induced B16F10 cells. The settings on record: α-MSH and IBMX 48 h, 5, 10 and 20 µM.
Description: All results were standardized to the total protein concentration of the cell lysates using the bicinchoninic acid (BCA) reagent (Thermo Fisher Scientific, Waltham, MA, USA).
Where [7] appears, read: cytosolic fraction, 5, 10 and 20 µM.

Chain of mushroom tyrosinase (C7FF04 1-392): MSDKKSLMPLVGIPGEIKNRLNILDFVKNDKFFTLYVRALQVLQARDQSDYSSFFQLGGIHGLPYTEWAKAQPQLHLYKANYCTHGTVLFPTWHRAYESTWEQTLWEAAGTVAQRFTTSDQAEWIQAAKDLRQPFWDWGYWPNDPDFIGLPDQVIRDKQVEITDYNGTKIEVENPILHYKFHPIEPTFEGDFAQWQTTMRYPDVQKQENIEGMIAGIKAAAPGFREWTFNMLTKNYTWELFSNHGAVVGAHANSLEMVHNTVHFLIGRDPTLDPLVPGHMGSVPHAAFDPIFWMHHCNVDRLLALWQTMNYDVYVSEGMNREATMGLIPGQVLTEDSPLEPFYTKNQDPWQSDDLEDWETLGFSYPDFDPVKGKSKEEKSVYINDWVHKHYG

Turning to `COc1ccc(/C=c2\sc3nc4ccccc4n3c2=O)c(OC)c1` [Compound 9], the melting point lay within 250.1 to 257.5 °C.

Take `O=c1/c(=C/c2ccccc2O)sc2nc3ccccc3n12` [Compound 10]: the melting point was in the range of 244.2 to 245.2 °C.

For `Cc1c(C)c2c(c(C)c1O)CCC(C)(C(=O)O)O2` (stereo not shown) [Trolox, reference compound], in the data set on B16F10 cells [1], the cell viability entry is listed as “did not significantly affect cell viability at concentrations up to 20 µM”. Further, in data set [2], the IC50 amounted to 13.2 ± 0.73 µM.

For `COc1ccc(/C=c2\sc3nc4ccccc4n3c2=O)cc1O` [Compound 6], the melting point fell in the range of 249.6 to 252.1 °C.

As for `O=c1/c(=C/c2ccc(O)c(O)c2)sc2nc3ccccc3n12` [Compound 2], the melting point was at least 300 °C. Also, the “Inhibition Type” value on mushroom tyrosinase is “Competitive”. In data set [2], this compound had an IC50 of 2.36 ± 0.48 µM. In the data set on B16F10 cells [3], the “SIN-1-induced ROS generation in cells” value is recorded as “dose-dependently scavenged ROS; also recorded: reduced SIN-1-induced ROS generation in a dose-dependent manner”. Further, in data set [4] (setting [7]), the “expression of tyrosinase, phosphorylated CREB and PKA” value is on record as “decreased their expression on these proteins in a dose-dependent manner”; the “levels of phosphorylated JNK and ERK” value is “decreased the levels of phosphorylated JNK and ERK in a concentration-dependent manner”; the “levels of phosphorylated p38” value is on record as “not affected”. The MITF levels entry in data set [4] (nuclear fraction, 5, 10 and 20 µM) is given as “significantly suppressed MITF levels”. Also, the “mRNA levels of tyrosinase, TRP1, TRP2 and MITF” value in data set [5] is given as “significantly inhibited the expression”.

Regarding `COc1cc(/C=c2\sc3nc4ccccc4n3c2=O)cc(OC)c1OC` [Compound 11], the melting point came to 215.1 °C.

Turning to `COc1ccc(/C=c2\sc3nc4ccccc4n3c2=O)cc1OC` [Compound 8], the melting point lay within 236.7 to 236.9 °C.

Compound `COc1cc(/C=c2\sc3nc4ccccc4n3c2=O)cc(OC)c1O` [Compound 12] had a melting point of 261.9 to 269.1 °C.

`COc1ccc(/C=c2\sc3nc4ccccc4n3c2=O)cc1` [Compound 7] yielded a melting point of 239.5 to 241.8 °C.

`O=c1/c(=C/c2ccc(O)c(Br)c2)sc2nc3ccccc3n12` [Compound 13]: the melting point lay in the range of 293.7 to 297 °C.

Compound `O=c1/c(=C/c2ccc(O)cc2O)sc2nc3ccccc3n12` [Compound 3] displayed a melting point of 263.7 to 268.3 °C. Further, the “Inhibition Type” value on mushroom tyrosinase is on record as “Competitive”. The compound also returned an IC50 in data set [2] of at least 50 µM.

For `O=c1/c(=C/c2ccc(O)cc2)sc2nc3ccccc3n12` [Compound 1], the melting point is at least 300 °C. The “Inhibition Type” value on mushroom tyrosinase is “Competitive”. This compound also showed an IC50 in data set [2] of at least 50 µM. In the data set with B16F10 cells [6], the “effect on melanin contents” value was “reduced the melanin content at 20 µM”.

As for `CCOc1cc(/C=c2\sc3nc4ccccc4n3c2=O)ccc1O` [Compound 5], the melting point was found to be 210.7 °C.

In turn, `COc1cc(/C=c2\sc3nc4ccccc4n3c2=O)ccc1O` [Compound 4] registered a melting point of 262.3 to 264 °C.
